# B1: GARFTase (Homo sapiens) (protein)
# chain: ARVAVLISGTGSNLQALIDSTREPNSSAQIDIVISNKAAVAGLDKAERAGIPTRVINHKLYKNRVEFDSAIDLVLEEFSIDIVCLAGFMRILSGPFVQKWNGKMLNIHPSLLPSFKGSNAHEQALETGVTVTGCTVHFVAEDVDAGQIILQEAVPVKRGDTVATLSERVKLAEHKIFPAALQLVASGTVQLGENGKICWVKEE
# Experiments:
# MTHFD2 = target: T1, MTHFD2 (Homo sapiens, UniProt P13995); test: NAD; format: biochemical
# T1 sequence (P13995 36-333): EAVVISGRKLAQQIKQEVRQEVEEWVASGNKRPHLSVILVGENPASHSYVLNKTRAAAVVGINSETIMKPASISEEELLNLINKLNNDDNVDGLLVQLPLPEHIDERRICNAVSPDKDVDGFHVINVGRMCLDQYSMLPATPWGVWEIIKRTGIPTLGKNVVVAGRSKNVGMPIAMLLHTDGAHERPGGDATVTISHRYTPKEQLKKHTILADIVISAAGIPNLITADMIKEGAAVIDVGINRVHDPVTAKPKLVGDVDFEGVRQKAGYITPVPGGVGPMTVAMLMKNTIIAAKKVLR
# SHMT1 [1] = target: T2, SHMT1 (Homo sapiens, UniProt P34896); test: coupled SHMT/MTHFD2 assay, NADH fluorescence; format: biochemical; settings: His-MTHFD2 in […] molar excess
# T2 sequence (P34896 7-478): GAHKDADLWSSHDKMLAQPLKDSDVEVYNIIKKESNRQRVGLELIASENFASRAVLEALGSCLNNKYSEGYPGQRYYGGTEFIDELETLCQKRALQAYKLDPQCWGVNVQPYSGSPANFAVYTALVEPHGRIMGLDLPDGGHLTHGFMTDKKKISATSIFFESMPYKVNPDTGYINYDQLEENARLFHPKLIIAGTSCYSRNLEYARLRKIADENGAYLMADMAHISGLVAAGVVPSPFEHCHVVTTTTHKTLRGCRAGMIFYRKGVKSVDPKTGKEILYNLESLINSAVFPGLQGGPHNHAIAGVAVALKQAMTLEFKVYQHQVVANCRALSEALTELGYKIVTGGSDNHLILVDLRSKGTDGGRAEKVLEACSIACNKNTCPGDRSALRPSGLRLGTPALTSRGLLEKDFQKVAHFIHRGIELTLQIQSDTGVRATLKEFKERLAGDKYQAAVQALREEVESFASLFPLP
# SHMT2 [2] = target: T3, SHMT2 (Homo sapiens, UniProt P34897); test: coupled SHMT/MTHFD2 assay, NADH fluorescence; format: biochemical; settings: His-MTHFD2 in […] molar excess
# T3 sequence (P34897 42-504): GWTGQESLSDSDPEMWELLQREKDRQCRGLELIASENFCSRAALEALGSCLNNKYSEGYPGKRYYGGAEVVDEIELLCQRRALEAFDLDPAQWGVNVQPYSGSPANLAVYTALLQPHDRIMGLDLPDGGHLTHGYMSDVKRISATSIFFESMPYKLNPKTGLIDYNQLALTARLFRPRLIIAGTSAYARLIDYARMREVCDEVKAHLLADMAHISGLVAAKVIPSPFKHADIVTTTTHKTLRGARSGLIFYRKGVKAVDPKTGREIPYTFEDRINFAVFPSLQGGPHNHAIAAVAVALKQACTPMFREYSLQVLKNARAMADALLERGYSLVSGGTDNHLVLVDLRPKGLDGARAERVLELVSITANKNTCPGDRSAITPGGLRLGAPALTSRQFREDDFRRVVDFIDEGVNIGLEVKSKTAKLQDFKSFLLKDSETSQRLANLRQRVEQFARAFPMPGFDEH
# AICARFTase (ATIC) [3] = target: T4, AICARFTase (ATIC) (Homo sapiens, UniProt P31939); test: spectrophotometric THF formation; format: biochemical
# SHMT1 [4] = target: T2, SHMT1; test: coupled SHMT/MTHFD2 assay, NADH fluorescence; format: biochemical; settings: Ki = IC50/([S]/KM+[…]); KM of THF […]; His-MTHFD2 in […] molar excess
# SHMT2 [5] = target: T3, SHMT2; test: coupled SHMT/MTHFD2 assay, NADH fluorescence; format: biochemical; settings: Ki = IC50/([S]/KM+[…]); KM of THF […]; His-MTHFD2 in […] molar excess
# AICARFTase (ATIC) [6] = target: T4, AICARFTase (ATIC); test: spectrophotometric THF formation from 10-formyl-THF; format: biochemical; settings: Ki = IC50/([S]/KM+[…]); KM of […]-formyl-THF […]
# [7] = substrate: Nc1nc2c(c(=O)[nH]1)N[C@@H](CN(C=O)c1ccc(C(=O)N[C@@H](CCC(=O)O)C(=O)O)cc1)CN2; test: spectrophotometric THF formation; format: biochemical, Homo sapiens
# T4 sequence (P31939 whole entry): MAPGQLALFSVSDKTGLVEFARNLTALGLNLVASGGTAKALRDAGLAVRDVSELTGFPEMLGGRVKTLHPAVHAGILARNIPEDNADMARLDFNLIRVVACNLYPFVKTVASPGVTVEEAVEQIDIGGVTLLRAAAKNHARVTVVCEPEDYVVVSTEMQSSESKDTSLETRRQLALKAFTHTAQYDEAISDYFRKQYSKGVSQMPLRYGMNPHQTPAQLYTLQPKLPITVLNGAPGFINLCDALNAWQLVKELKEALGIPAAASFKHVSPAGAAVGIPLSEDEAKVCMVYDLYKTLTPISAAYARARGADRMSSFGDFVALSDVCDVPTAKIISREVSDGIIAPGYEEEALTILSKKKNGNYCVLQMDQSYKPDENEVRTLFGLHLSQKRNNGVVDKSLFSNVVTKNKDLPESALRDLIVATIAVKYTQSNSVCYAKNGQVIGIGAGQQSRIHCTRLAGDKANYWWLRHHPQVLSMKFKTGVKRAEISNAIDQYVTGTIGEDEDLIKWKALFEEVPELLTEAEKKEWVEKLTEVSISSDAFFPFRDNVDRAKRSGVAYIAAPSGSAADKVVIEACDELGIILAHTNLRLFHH
molecule,measurement,setting,value
AGF320,NI (no inhibition up to 200 μM inhibitor; Ki column),MTHFD2,> 200 µM
Nc1nc2c(c(=O)[nH]1)N[C@@H](CNc1ccc(C(=O)N[C@@H](CCC(=O)O)C(=O)O)cc1)CN2 [THF],Km,SHMT1 [1],62.8 µM
same,Km,SHMT2 [2],108 µM
Nc1nc2c(c(=O)[nH]1)N[C@@H](CN(C=O)c1ccc(C(=O)N[C@@H](CCC(=O)O)C(=O)O)cc1)CN2 [10-formyl-THF],Km,AICARFTase (ATIC) [3],100 µM
Nc1nc(=O)c2c(CCc3ccc(C(=O)N[C@@H](CCC(=O)O)C(=O)O)cc3)c[nH]c2[nH]1 [PMX],NI (no inhibition up to 200 μM inhibitor; Ki column),SHMT1 [4],> 200 µM
same,NI (no inhibition up to 200 μM inhibitor; Ki column),SHMT2 [5],> 200 µM
same,NI (no inhibition up to 200 μM inhibitor; Ki column),MTHFD2,> 200 µM
Nc1nc2[nH]c(CCCc3ccc(C(=O)N[C@@H](CCC(=O)O)C(=O)O)s3)cc2c(=O)[nH]1 [AGF94],NI (no inhibition up to 200 μM inhibitor; Ki column),AICARFTase (ATIC) [6],> 200 µM
same,NI (no inhibition up to 200 μM inhibitor; Ki column),MTHFD2,> 200 µM
B1,Km,[7],84.8 µM

# Source: article PMC6774887 (Molecular cancer therapeutics, 2019)
